Test results from patent publication EP0907731B1, “METABOTROPIC GABA(B) RECEPTORS, RECEPTOR-SPECIFIC LIGANDS AND THEIR USES” (Novartis AG, priority 1996, dated 1997).
pIC50: −log10 of the molar value. “Also recorded” adds a separate entry of the source. Read-outs that look alike come from different tables or passages of the source.

Assays:
GABAB receptors = settings: inhibition of [125I]CGP 64213 binding, native receptors; read-out: Rat cerebral cortex IC50
Protocol: The animals are decapitated, the brains removed, the cerebral cortices dissected and homogenised in 10 volumes of ice-cold 0.32 M sucrose, containing MgCl2 (1 mM) and K2HPO4 (1 mM), with a glass/Teflon homogeniser. The membranes are centrifuged at 1000 x g for 15 min, the pellet resuspended and the centrifugation repeated. The supernatants are pooled and centrifuged at 20000 x g for 15 min. The pellet is osmotically shocked by resuspension in 10 volumes H2O and kept on ice for 30 min. […] The membranes are thawed at room temperature, washed three times with Krebs-Henseleit buffer by centrifugation at 20000 x g for 15 min, left overnight at 4°C and washed again three times. The final pellet is resuspended with a glass/Teflon homogenise in 20 ml of the same buffer. 2 ml aliquots are frozen and stored in liquid nitrogen. Just before use membranes are thawed quickly in a water bath at 37°C and again washed by centrifugation at 20000 x g for 15 min with the same buffer three times.
The incubation is terminated by filtration through GF/B Whatman glass fibre filters.

[1] = target: recombinant GABABR1a receptors; settings: read-out: COS 1 cells IC50, inhibition of [125I]CGP 64213 binding
Protocol: In order to isolate membranes containing the cloned GABAB receptor, culture dishes containing GABAB receptor-expressing COS cells are washed twice with Krebs-Henseleit-Tris buffer. Afterwards the cells are scraped off the dishes, homogenised in a glass-glass homogeniser and centrifuged for 30 min at 4°C at 40'000 g. The homogenisation and centrifugation step is repeated once. The pellet is resuspended in buffer and stored in liquid nitrogen until further analysis.

native GABAB receptors = experiment: Photoaffinity labelling of membranes with [125I]CGP 71872 in the presence of competitor substances; format: binding, rat
Protocol: The incubation is terminated by centrifugation at 20 000 x g for 10 min at 4°C. This step removed free unbound photoaffinity label. […] The suspension is centrifuged at 20 000 x g for 10 min and resuspended at a concentration of 8mg/ml protein in buffer. […] The labelled membranes could be stored at -80°C.
Furthermore, native GABAB receptors are photoaffinity-labelled in the presence of various competitor substances indicated in Figure 4b.

GABABR1a = target: T1, GABABR1a (Rattus norvegicus, UniProt Q9Z0U4); experiment: Forskolin-stimulated cAMP accumulation in HEK293 cells stably expressing GABABR1a; format: cell-based; settings: 10 µM antagonist, 300 µM L-baclofen
T1 construct: either the full-length cDNA clones disclosed herein or fragments thereof can be used as probes; expressed in transfected cells
Source text: GABAB receptors are described to inhibit adenylate cyclase activity, stimulate phospholipase A2, activate K^+-channels, inactivate voltage-dependent Ca^2+-channels and to modulate inositol phospholipid hydrolysis. As GABABR1a and -b have identical sequence in all domains predicted to be intracellular they are expected to be able to couple to the same effector systems. […] We chose concentrations of forskolin and L-baclofen that should produce a maximal effect.

[2] = tested on: non-transfected HEK293 cells; experiment: Forskolin-stimulated cAMP formation in non-transfected HEK293 cells (control); format: cell-based; settings: untransfected HEK293 cells
Protocol: • Figure 1 a depicts the expression of the recombinant GABABR1a receptor in COS1 cells. […]. Autoradiography of a 6% SDS gel with 25µg protein loaded per lane is shown. […]. The apparent molecular weight of native and recombinant GABAB receptors are estimated from gel mobilities relative to those of SDS-PAGE standards (BioRad). […]. Cell membranes of the tissues indicated are photoaffinity-labelled with [[…] and subjected to SDS-PAGE and autoradiography. a, b, Selectivity of the photoaffinity ligand [[…]. a, Differential distribution of GABAB receptor variants of 130K and 100K in tissues of the nervous system. […]. Incubation of membrane extracts with the photoaffinity ligand is carried out in the presence of competitor substances at the concentrations indicated, c, GABAB receptors are N-glycosylated. Photoaffinity-labelled rat cortex cell membranes are incubated with 0.4 units N-glycosidase F or 0.6 milliunits O-glycosidase (Boehringer Mannheim). d, Photolabelling of GABAB receptors from different species. […]
GABAB receptors are described to inhibit adenylate cyclase activity, stimulate phospholipase A2, activate K^+-channels, inactivate voltage-dependent Ca^2+-channels and to modulate inositol phospholipid hydrolysis. […] The ability of GABABR1a stably expressed in HEK293 cells to reduce forskolin-stimulated CAMP accumulation is analysed (Fig. 5). […]

[3] = tested on: rat cortical slice preparations; settings: cited from earlier work

T1 sequence (Q9Z0U4 20-960): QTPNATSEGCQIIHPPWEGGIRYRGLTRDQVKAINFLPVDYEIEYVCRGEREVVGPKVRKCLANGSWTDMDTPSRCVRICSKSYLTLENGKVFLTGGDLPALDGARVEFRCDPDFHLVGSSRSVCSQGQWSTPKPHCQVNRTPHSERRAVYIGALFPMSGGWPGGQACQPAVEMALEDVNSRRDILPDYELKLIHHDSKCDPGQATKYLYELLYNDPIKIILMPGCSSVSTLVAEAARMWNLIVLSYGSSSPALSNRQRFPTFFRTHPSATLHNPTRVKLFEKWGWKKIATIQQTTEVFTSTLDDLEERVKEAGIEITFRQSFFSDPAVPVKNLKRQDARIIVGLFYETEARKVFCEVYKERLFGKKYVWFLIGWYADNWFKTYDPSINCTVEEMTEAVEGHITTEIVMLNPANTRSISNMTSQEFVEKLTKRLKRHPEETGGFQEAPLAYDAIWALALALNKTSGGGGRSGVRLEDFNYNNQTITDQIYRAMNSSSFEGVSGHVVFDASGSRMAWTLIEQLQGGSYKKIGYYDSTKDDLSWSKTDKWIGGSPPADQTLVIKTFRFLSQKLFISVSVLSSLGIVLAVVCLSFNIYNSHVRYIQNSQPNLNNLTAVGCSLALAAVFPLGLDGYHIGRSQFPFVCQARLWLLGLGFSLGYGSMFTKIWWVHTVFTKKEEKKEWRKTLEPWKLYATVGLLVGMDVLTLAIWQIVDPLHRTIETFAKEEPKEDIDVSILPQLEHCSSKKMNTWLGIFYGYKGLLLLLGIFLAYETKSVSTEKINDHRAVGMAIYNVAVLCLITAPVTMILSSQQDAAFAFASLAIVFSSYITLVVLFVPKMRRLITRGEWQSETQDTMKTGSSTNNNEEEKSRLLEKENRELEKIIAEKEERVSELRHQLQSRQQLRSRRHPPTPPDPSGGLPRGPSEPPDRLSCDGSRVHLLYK

With `NCCCP(=O)(O)C(F)F` [CGP 47656] as the compound, how does the pIC50 (GABAB receptors) read?
Its pIC50 is 6.55.

What about the pIC50 [1] of the same compound?
The pIC50 was 4.91.

Which results are given for `C[C@H](NC[C@H](O)CP(=O)(O)CC1CCCCC1)c1ccc(Cl)c(Cl)c1` [CGP 54626A]?
[125I]CGP 71872 labelling in the presence of excess unlabelled antagonist (native GABAB receptors): no radioactivity is bound to the membranes; [125I]CGP 71872 labelling in the presence of excess unlabelled antagonist (native GABAB receptors; listed as CGP54626A): inhibited; effect on the L-baclofen inhibition of forskolin-stimulated cAMP accumulation (GABABR1a): antagonised

For `NC[C@H](CC(=O)O)c1ccc(Cl)cc1` [L-baclofen], which “inhibition of forskolin-stimulated cAMP formation” value [2] is on record?
Its value is “No L-baclofen response; also recorded: does not inhibit”.

What about the “reduction of forskolin-stimulated cAMP accumulation” value [3] of the same compound?
The value was “about 40%”.
